In patent US6448442B1, “Contrast media” (Amersham Health AS, priority 1999, dated 2002):
Several values for one entry are separate records, joined by “and”; a condition that tells them apart may be missing. Equal entries are not always repeated. Blank lines part the entries; values can stand above or below the molecule they belong to.

Experiment: Viscosity in aqueous solution at 20° C. (Example 82, Tables 1 and 2)
Assay type: physicochemical
Conditions: for Viscosity at 400 mgI/ml (CALCULATED): calculated for 400 mgI/ml; for Viscosity 350 mgI/ml (CALCULATED): calculated for 350 mgI/ml
Procedure: The viscosities in aqueous solution at 20° C. for some further compounds described above were determined and are listed in Table 2. […]

[1] = iodine concentration 394 mgI/mL

SMILES: O=C(Nc1c(I)c(CO)c(I)c(N(CCO)C(=O)C(O)CO)c1I)C(O)CO (stereo not shown) [Example 13, N,N′-Bis(2,3-dihydroxypropionyl)-N-(2-hydroxyethyl)-3,5-diamino-2,4,6-triiodobenzylalcohol]
- Viscosity at 400 mgI/ml (CALCULATED): 12.2 mPas
- Viscosity 20° C. (concentration 398 mgI/ml): 12 mPas
- Viscosity (iodine concentration 398 mgI/mL): 12 mPas

SMILES: CC(O)C(=O)Nc1c(I)c(CO)c(I)c(C(=O)N(CC(O)CO)CC(O)CO)c1I (stereo not shown) [Example 69, 5-(2-Hydroxypropionylamino)-3-hydroxymethyl-N,N-bis-(2,3-dihydroxypropyl)-2,4,6-triiodobenzamide]
- Viscosity at 400 mgI/ml (CALCULATED): 17.0 mPas
- Viscosity 20° C. (concentration 417 mgI/ml): 21 mPas

SMILES: O=C(C(O)CO)N(CCO)c1c(I)c(CCO)c(I)c(N(CCO)C(=O)C(O)CO)c1I (stereo not shown) [Example 62, 3,5-Bis[N-(2-hydroxyethyl)-2,3-dihydroxypropionylamino]-2,4,6-triiodo-(2-hydroxyethyl)benzene]
- Viscosity at 400 mgI/ml (CALCULATED): 14.3 mPas
- Viscosity 20° C. (concentration 353 mgI/ml): 9 mPas

SMILES: O=C(CO)Nc1c(I)c(CC(O)CO)c(I)c(N(CC(O)CO)C(=O)CO)c1I (stereo not shown) [Example 74, 5-Hydroxyacetamido-3-[N-(2,3-dihydroxypropyl)-hydroxyacetamido]-2,4,6-triiodo-(2,3-dihydroxypropyl)benzene]
- Viscosity 350 mgI/ml (CALCULATED): 9.3 mPas
- Viscosity at 400 mgI/ml (CALCULATED): 15.8 mPas
- Viscosity 20° C. (concentration 399 mgI/ml): 16 mPas

SMILES: O=C(CO)N(CCO)c1c(I)c(CC(O)CO)c(I)c(N(CCO)C(=O)CO)c1I (stereo not shown) [Example 73, 3,5-Bis-[N,N′-(2-hydroxyethyl)-hydroxyacetamido]-2,4,6-triiodo-(2,3-dihydroxypropyl)benzene]
- Viscosity 350 mgI/ml (CALCULATED): 6.7 mPas
- Viscosity at 400 mgI/ml (CALCULATED): 10.4 mPas
- Viscosity 20° C. (concentration 396 mgI/ml): 10 mPas

SMILES: O=C(c1c(I)c(CO)c(I)c(N(CCO)C(=O)C(O)CO)c1I)N(CCO)CCO (stereo not shown) [Example 43, 5-[N′-(2-Hydroxyethyl)-2,3-dihydroxypropionylamino]-3-hydroxy-methyl-N,N-bis (2-hydroxyethyl)-2,4,6-triiodobenzamide]
- Viscosity at 400 mgI/ml (CALCULATED): 14.2 mPas
- Viscosity 20° C. (concentration 488 mgI/ml): 42 mPas

SMILES: CN(CC(O)CO)C(=O)c1c(I)c(CO)c(I)c(N(CCO)C(=O)C(O)CO)c1I (stereo not shown) [Example 47, 5-[N′-(2-Hydroxyethyl)-2,3-dihydroxypropionylamino]-3-hydroxymethyl-N-methyl-N-(2,3-dihydroxypropyl)-2,4,6-triiodobenzamide]
- Viscosity at 400 mgI/ml (CALCULATED): 16.4 mPas
- Viscosity 20° C. (concentration 447 mgI/ml): 28 mPas

SMILES: O=C(CO)Nc1c(I)c(CC(O)CO)c(I)c(N(CCO)C(=O)CO)c1I (stereo not shown) [Example 72, 5-Hydroxyacetamido-3-[N-(2-hydroxyethyl)-hydroxyacetamido]-2,4,6-triiodo-(2,3-dihydroxypropyl)benzene]
- Viscosity 350 mgI/ml (CALCULATED): 7.2 mPas
- Viscosity at 400 mgI/ml (CALCULATED): 11.0 mPas
- Viscosity 20° C. (concentration 432 mgI/ml): 15 mPas

SMILES: O=C(c1c(I)c(CO)c(I)c(N2CCCC(O)C2=O)c1I)N(CC(O)CO)CC(O)CO (stereo not shown) [Example 70, 5-(3-Hydroxy-2-oxo-1-piperidinyl)-3-hydroxymethyl-N,N-bis-(2,3-dihydroxypropyl)-2,4,6-triiodobenzamide]
- Viscosity at 400 mgI/ml (CALCULATED): 27.8 mPas
- Viscosity 20° C. (concentration 361 mgI/ml): 16 mPas

SMILES: O=C(CO)Nc1c(I)c(CC(O)CO)c(I)c(NC(=O)CO)c1I (stereo not shown) [Example 71, 3,5-Bis-(Hydroxyacetamido)-2,4,6-triiodo-(2,3-dihydroxypropyl)benzene]
- Viscosity 350 mgI/ml (CALCULATED): 6.0 mPas
- Viscosity at 400 mgI/ml (CALCULATED): 8.8 mPas
- Viscosity 20° C. (concentration 455 mgI/ml): 14 mPas

SMILES: O=C(NCC(O)CO)c1c(I)c(CO)c(I)c(NC(=O)C(CO)(CO)CO)c1I (stereo not shown) [Example 33, 5-(3-Hydroxy-2,2-dihydroxymethyl-propionylamino)-3-hydroxymethyl-N-(2,3-dihydroxypropyl)-2,46-triiodobenzamide]
- Viscosity at 400 mgI/ml (CALCULATED): 22.9 mPas
- Viscosity 20° C. (concentration 370 mgI/ml): 16 mPas
- Viscosity (iodine concentration 370 mgI/mL): 16 mPas

SMILES: O=C(Nc1c(I)c(CO)c(I)c(C(=O)N(CCO)CCO)c1I)C(O)CO (stereo not shown) [Example 42, 5-(2,3-Dihydroxypropionylamino)-3-hydroxymethyl-N,N-bis(2-hydroxyethyl)-2,4,6-triiodobenzamide]
- Viscosity at 400 mgI/ml (CALCULATED): 12.8 mPas
- Viscosity 20° C. (concentration 488 mgI/ml): 34 mPas

SMILES: CC(O)C(=O)Nc1c(I)c(CO)c(I)c(C(=O)NC(CO)C(O)CO)c1I (stereo not shown) [Example 37, 5-(2-Hydroxypropionylamino)-3-hydroxymethyl-N-(1,3,4-tri-hydroxybut-2-yl)-2,4,6-triiodobenzamide]
- Viscosity at 400 mgI/ml (CALCULATED): 15.6 mPas
- Viscosity 20° C. (concentration 398 mgI/ml): 16 mPas
- Viscosity 20° C. (concentration 458 mgI/ml): 30 mPas
- Viscosity (iodine concentration 458 mgI/mL): 30 mPas

SMILES: O=C(Nc1c(I)c(CO)c(I)c(N(CC(O)CO)C(=O)C(O)CO)c1I)C(O)CO (stereo not shown) [Example 15, N,N′-Bis(2,3-dihydroxypropionyl)-N-(2,3-dihydroxypropyl)-3,5-diamino-2,4,6-triiodobenzylalcohol]
- Viscosity at 400 mgI/ml (CALCULATED): 17.8 mPas and 14.9 mPas
- Viscosity 20° C. (concentration 291 mgI/ml): 5.4 mPas
- Viscosity 20° C. (concentration 384 mgI/ml): 15 mPas
- Viscosity 20° C. (concentration 394 mgI/ml): 14 mPas
- Viscosity (iodine concentration 348 mgI/mL): 7.8 mPas
- Viscosity [1]: 14 mPas
- Viscosity (iodine concentration 446 mgI/mL): 22 mPas
- Viscosity (iodine concentration 537 mgI/mL): 75 mPas

SMILES: O=C(C(O)CO)N(CCO)c1c(I)c(CO)c(I)c(N(CCO)C(=O)C(O)CO)c1I (stereo not shown) [Example 14, N,N′-Bis(2,3-dihydroxypropionyl)-N,N-bis(2-hydroxyethyl)-3,5-diamino-2,4,6-triiodobenzylalcohol]
- Viscosity at 400 mgI/ml (CALCULATED): 15.8 mPas
- Viscosity 20° C. (concentration 373 mgI/ml): 12.0 mPas
- Viscosity (iodine concentration 373 mgI/mL): 12 mPas

Further lines, results first:

- Viscosity at 400 mgI/ml (CALCULATED): 13.2 mPas
- Viscosity 20° C. (concentration 380 mgI/ml): 11 mPas
SMILES: O=C(NC(CO)CO)c1c(I)c(CO)c(I)c(N(CCO)C(=O)CO)c1I [Example 49, 5-[N′-(2-Hydroxyethyl)-hydroxyacetamido]-3-hydroxymethyl-N-(1,3-dihydroxyprop-2-yl)-2,4,6-triiodobenzamide]

- Viscosity 350 mgI/ml (CALCULATED): 12.0 mPas
- Viscosity at 400 mgI/ml (CALCULATED): 20.4 mPas
- Viscosity 20° C. (concentration 372 mgI/ml): 15 mPas
- Viscosity (iodine concentration 372 mgI/mL): 15 mPas
SMILES: O=C(NC(CO)C(O)CO)c1c(I)c(CO)c(I)c(N(CCO)C(=O)C(O)CO)c1I (stereo not shown) [Example 39, 5-[N′-(2-Hydroxyethyl)-2,3-dihydroxypropionylamino]-3-hydroxymethyl-N-(1,3,4-trihydroxybut-2-yl)-2,4,6-triiodobenzamide]

- Viscosity 350 mgI/ml (CALCULATED): 9.2 mPas
- Viscosity at 400 mgI/ml (CALCULATED): 14.6 mPas
- Viscosity 20° C. (concentration 404 mgI/ml): 15 mPas
- Viscosity (iodine concentration 404 mgI/mL): 15 mPas
SMILES: CC(O)C(=O)N(CCO)c1c(I)c(CO)c(I)c(C(=O)NCC(O)CO)c1I (stereo not shown) [Example 28, 5-[N′-(2-Hydroxyethyl)-2-hydroxypropionylamino]-3-hydroxymethyl-N-(2,3-dihydroxypropyl)-2,4,6-triiodobenzamide]

- Viscosity 350 mgI/ml (CALCULATED): 10.6 mPas
- Viscosity at 400 mgI/ml (CALCULATED): 17.7 mPas
- Viscosity 20° C. (concentration 382 mgI/ml): 15 mPas
- Viscosity (iodine concentration 382 mgI/mL): 15 mPas
SMILES: O=C(NC(CO)C(O)CO)c1c(I)c(CO)c(I)c(N(CC(O)CO)C(=O)CO)c1I (stereo not shown) [Example 36, 5-[N′-(2,3-Dihydroxypropyl)-hydroxyacetamido]-3-hydroxymethyl-N-(1,3 4-trihydroxybut-2-yl)-2,4.6-triiodobenzamide]

- Viscosity 350 mgI/ml (CALCULATED): 9.6 mPas
- Viscosity at 400 mgI/ml (CALCULATED): 15.5 mPas
- Viscosity 20° C. (concentration 394 mgI/ml): 15 mPas
- Viscosity [1]: 15 mPas
SMILES: O=C(NC(CO)C(O)CO)c1c(I)c(CO)c(I)c(N(CCO)C(=O)CO)c1I (stereo not shown) [Example 35, 5-[N′-(2-Hydroxyethyl)-hydroxyacetamido]-3-hydroxymethyl-N-(1,3,4-trihydroxybut-2-yl)-2,4,6-triiodobenzamide]

- Viscosity at 400 mgI/ml (CALCULATED): 19.4 mPas
- Viscosity 20° C. (concentration 429 mgI/ml): 28 mPas
SMILES: O=C(NC(CO)(CO)CO)c1c(I)c(CO)c(I)c(N(CCO)C(=O)CO)c1I [Example 55, 5-[N′-(2-Hydroxyethyl)-hydroxyacetamido]-3-hydroxymethyl-N-[tris-(hydroxymethyl)-methyl]-2,4,6-triiodobenzamide]

- Viscosity at 400 mgI/ml (CALCULATED): 12.0 mPas
- Viscosity 20° C. (concentration 508 mgI/ml): 40 mPas
SMILES: O=C(c1c(I)c(CO)c(I)c(N(CCO)C(=O)CO)c1I)N(CCO)CCO [Example 41, 5-[N′-(2-Hydroxyethyl)-hydroxyacetamido]-3-hydroxymethyl-N,N-bis(2-hydroxyethyl)-2,4,6-triiodobenzamide]

- Viscosity 350 mgI/ml (CALCULATED): 9.4 mPas
- Viscosity at 400 mgI/ml (CALCULATED): 15.1 mPas
- Viscosity 20° C. (concentration 385 mgI/ml): 13 mPas
- Viscosity (iodine concentration 385 mgI/mL): 13 mPas
SMILES: O=C(NCC(O)CO)c1c(I)c(CO)c(I)c(N(CC(O)CO)C(=O)CO)c1I (stereo not shown) [Example 26, 5-[N′-(2,3-Dihydroxypropyl)-hydroxyacetamido]-3-hydroxymethyl-N-(2,3-dihydroxypropyl)-2,4,6-triiodobenzamide]

- Viscosity 350 mgI/ml (CALCULATED): 10.4 mPas
- Viscosity at 400 mgI/ml (CALCULATED): 17.8 mPas
- Viscosity 20° C. (concentration 413 mgI/ml): 21 mPas
SMILES: CC(O)C(=O)N(CCO)c1c(I)c(CO)c(I)c(C(=O)NC(CO)C(O)CO)c1I (stereo not shown) [Example 65, 5-[N′-(2-Hydroxyethyl)-2-hydroxypropionylamino]-3-hydroxymethyl-N-(1,3,4-trihydroxybut-2-yl)-2,4,6-triiodobenzamide]

- Viscosity at 400 mgI/ml (CALCULATED): 19.1 mPas
- Viscosity 20° C. (concentration 450 mgI/ml): 31 mPas
SMILES: O=C(c1c(I)c(CO)c(I)c(N(CCO)C(=O)CO)c1I)N(CC(O)CO)CC(O)CO (stereo not shown) [Example 68, 5-[N′-(2-Hydroxyethyl)-hydroxyacetamido]-3-hydroxymethyl-N,N-bis-(2,3-dihydroxypropyl)-2,4,6-tiiodobenzamide]
